From paper PMC4256349, “A Conformational Sampling Model for Radical Catalysis in Pyridoxal Phosphate- and Cobalamin-dependent Enzymes” (The Journal of Biological Chemistry, 2014)

Columns and labels:
[1] = biological target: T1, ornithine 4,5-aminomutase (OAM) (Acetoanaerobium sticklandii, UniProt E3PY95); parameters: gene oraE; settings: anaerobic, pH 8.5, 25 °C; equimolar with apoenzyme; covalent (Lys629)
T1 sequence (E3PY95 1-740): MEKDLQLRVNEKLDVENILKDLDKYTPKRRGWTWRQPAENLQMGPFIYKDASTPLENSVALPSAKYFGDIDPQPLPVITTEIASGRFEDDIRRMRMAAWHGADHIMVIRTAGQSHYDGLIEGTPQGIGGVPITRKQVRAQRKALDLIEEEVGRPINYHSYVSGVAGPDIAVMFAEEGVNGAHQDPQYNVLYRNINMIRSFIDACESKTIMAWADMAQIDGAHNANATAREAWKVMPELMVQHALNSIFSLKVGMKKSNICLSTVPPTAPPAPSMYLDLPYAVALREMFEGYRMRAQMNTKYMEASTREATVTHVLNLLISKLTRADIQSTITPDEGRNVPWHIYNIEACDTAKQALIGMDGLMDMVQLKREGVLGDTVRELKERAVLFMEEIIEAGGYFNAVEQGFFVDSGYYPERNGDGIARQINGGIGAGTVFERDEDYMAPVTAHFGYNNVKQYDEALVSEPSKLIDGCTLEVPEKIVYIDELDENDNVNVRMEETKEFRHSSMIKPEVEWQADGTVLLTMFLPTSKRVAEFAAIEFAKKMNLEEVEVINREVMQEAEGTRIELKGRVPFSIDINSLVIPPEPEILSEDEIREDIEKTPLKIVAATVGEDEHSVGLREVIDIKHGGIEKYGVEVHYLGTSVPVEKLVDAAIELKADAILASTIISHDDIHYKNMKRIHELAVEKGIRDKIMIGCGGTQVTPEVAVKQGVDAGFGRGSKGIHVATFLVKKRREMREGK
T1 sequence (E3PY96 1-121 partner): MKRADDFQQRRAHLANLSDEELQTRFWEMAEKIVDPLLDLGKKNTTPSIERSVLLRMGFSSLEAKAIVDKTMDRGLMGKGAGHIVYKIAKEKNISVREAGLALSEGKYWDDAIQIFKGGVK

[2] = biological target: T1, ornithine 4,5-aminomutase (OAM); assay: UV-visible spectra, external aldimine formation; type: binding; parameters: gene oraE; C-terminal His6 (pET-OAMH2), expressed in E. coli; purified apoenzyme reconstituted with PLP and AdoCbl; OAM dimer printed (alpha2beta2 known); settings: aerobic, pH 8.5, 25 °C, 5 mM; inhibitor, covalent (PLP external aldimine)
[3] = biological target: T1, ornithine 4,5-aminomutase (OAM); assay: UV-visible, stopped flow and EPR; external aldimine and Co-C homolysis; type: binding; parameters: gene oraE; C-terminal His6 (pET-OAMH2), expressed in E. coli; purified apoenzyme reconstituted with PLP and AdoCbl; OAM dimer printed (alpha2beta2 known); settings: anaerobic, pH 8.5, 25 °C, 2.5 mM; inhibitor, covalent (PLP external aldimine)

SMILES: Cc1ncc(COP(=O)(O)O)c(C=O)c1O [PLP]
- UV-visible spectra, transimination at 416 nm [1]: transimination induced by the D-ornithine binding with PLP

SMILES: NCC(N)C(=O)O (racemic) [DL-2,3-diaminopropanoic acid]
- UV-visible spectra, external aldimine formation [2]: does not induce AdoCbl bond homolysis but does lead to external aldimine formation

SMILES: NCCC(N)C(=O)O (racemic) [DL-2,4-diaminobutyric acid]
- UV-visible, stopped flow and EPR; external aldimine and Co-C homolysis [3]: transimination induced by the DAB binding with PLP
